Values after ≈ are worked out from the molar mass of the structure shown.
What was measured:
Assay type in all cases: cell-based
[1] = system: Pichinde hemorrhagic fever virus 4763; assay: microbe, parasite or virus in culture; details: BSC-1, read-out: CPE EC50
[2] = system: Pichinde hemorrhagic fever virus 4763
[3] = system: Punta Toro A hemorrhagic fever virus type Adames; assay: Punta Toro A virus time-of-addition cytoprotection, CPE method
[4] = system: Punta Toro A hemorrhagic fever virus type Adames; assay: Punta Toro A virus time-of-addition cytoprotection, NR method
Procedure: (§1) The second cytoprotection assay protocol, employed to validate the CPE results, was as follows: in the neutral red dye uptake version of the antiviral test protocol described immediately above, the same 96-well microplates were utilized after the CPE had been read. Neutral red dye was then added to the medium: cells not damaged by virus take up a greater amount of dye, which can be read on a computerized micro plate autoreader (the method is described in detail by McManus: Appl. Environ. Microbiol. 1976, 31, 35-38).
(§2) Punta Toro A hemorrhagic fever virus type Adames was obtained from the Center for Disease Control (CDC). The test cell line consisted of adult Rhesus monkey kidney cells (LLC-MK2).
The two protocols used to determine the cytoprotection properties of the humate materials were as described in Example 20, except that drugs were added at specific times to the test wells containing virus.

[5] = system: Punta Toro A hemorrhagic fever virus type Adames; assay: Punta Toro A virus cytoprotection, neutral red dye uptake; details: Punta Toro A virus in LLC-MK2 cells
Procedure: as §1, §2
The two protocols used to determine the cytoprotection properties of the humate materials were as described in Example 20.

[6] = system: Punta Toro A hemorrhagic fever virus type Adames; assay: Punta Toro A virus cytoprotection, inhibition of CPE; details: LLC-MK2, read-out: CPE EC50

Structure (SMILES): NC(=O)c1ncn([C@@H]2O[C@H](CO)[C@@H](O)[C@H]2O)n1 [Ribavirin]
- EC50 [1]: 0.3 µg/mL (≈ 1.23 µM)
- NR EC99 [2]: <1 micrograms per milliliter
- EC50 ([3]; 0 h, read-out: EC50, CPE method, time of addition 0 hours): 4 µg/mL (≈ 16.4 µM)
- EC50 ([3]; 1 h, read-out: EC50, CPE method, time of addition 1 hours): 4 µg/mL (≈ 16.4 µM)
- EC50 ([3]; 1 h, read-out: EC50, CPE method, time of addition −1 hours): 10 µg/mL (≈ 40.9 µM)
- EC50 ([3]; 2 h, read-out: EC50, CPE method, time of addition 2 hours): 8 µg/mL (≈ 32.8 µM)
- EC50 ([3]; 4 h, read-out: EC50, CPE method, time of addition 4 hours): 4 µg/mL (≈ 16.4 µM)
- EC50 ([3]; 6 h, read-out: EC50, CPE method, time of addition 6 hours): 10 µg/mL (≈ 40.9 µM)
- EC50 ([3]; 8 h, read-out: EC50, CPE method, time of addition 8 hours): 8 µg/mL (≈ 32.8 µM)
- EC50 ([3]; 12 h, read-out: EC50, CPE method, time of addition 12 hours): 8 µg/mL (≈ 32.8 µM)
- EC50 ([3]; 24 h, read-out: EC50, CPE method, time of addition 24 hours): 2 µg/mL (≈ 8.19 µM)
- EC50 ([4]; 0 h, read-out: EC50, NR method, time of addition 0 hours): 3 µg/mL (≈ 12.3 µM)
- EC50 ([4]; 1 h, read-out: EC50, NR method, time of addition 1 hours): 5 µg/mL (≈ 20.5 µM)
- EC50 ([4]; 1 h, read-out: EC50, NR method, time of addition −1 hours): 6 µg/mL (≈ 24.6 µM)
- EC50 ([4]; 2 h, read-out: EC50, NR method, time of addition 2 hours): 5 µg/mL (≈ 20.5 µM)
- EC50 ([4]; 4 h, read-out: EC50, NR method, time of addition 4 hours): 9 µg/mL (≈ 36.9 µM)
- EC50 ([4]; 6 h, read-out: EC50, NR method, time of addition 6 hours): 8 µg/mL (≈ 32.8 µM)
- EC50 ([4]; 8 h, read-out: EC50, NR method, time of addition 8 hours): 10 µg/mL (≈ 40.9 µM)
- EC50 ([4]; 12 h, read-out: EC50, NR method, time of addition 12 hours): 12 µg/mL (≈ 49.1 µM)
- EC50 ([4]; 24 h, read-out: EC50, NR method, time of addition 24 hours): 35 µg/mL (≈ 143 µM)
- NR EC99 [5]: 5 micrograms per milliliter
- EC50 [6]: 5 µg/mL (≈ 20.5 µM)

— US20020049299A1, “Synthetic soil-extract materials and medicaments for hemorrhagic fever viruses based thereon” (priority 1997, published 2002)
